# Laboratory results as given in ChEMBL document CHEMBL1201862, “PubChem BioAssay data set” (2004).
# Activity calls are given as the source filed them.
# Experiments:
# [1] = target: Genome polyprotein (dengue virus type 2, UniProt P29990); test: Dengue-2 NS5 methyltransferase inhibitors, primary screen, biochemical, confirmation dose response (AID 588689); type: functional
# [2] = target: T1, Heat shock factor protein 1 (Mus musculus, UniProt P38532); test: inhibition of MG132-induced HSE-luciferase signal, confirmation, cell-based, NIH3T3, luminescence, dose retest (AID 2382); type: functional;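 further: NIH3T3 fibroblasts with HSF1-driven luciferase reporter stressed by proteasome inhibitor MG132; luminescence from HSF1-driven luciferase expression after 8 hours of MG132 stress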
# T1 sequence (P38532 whole entry): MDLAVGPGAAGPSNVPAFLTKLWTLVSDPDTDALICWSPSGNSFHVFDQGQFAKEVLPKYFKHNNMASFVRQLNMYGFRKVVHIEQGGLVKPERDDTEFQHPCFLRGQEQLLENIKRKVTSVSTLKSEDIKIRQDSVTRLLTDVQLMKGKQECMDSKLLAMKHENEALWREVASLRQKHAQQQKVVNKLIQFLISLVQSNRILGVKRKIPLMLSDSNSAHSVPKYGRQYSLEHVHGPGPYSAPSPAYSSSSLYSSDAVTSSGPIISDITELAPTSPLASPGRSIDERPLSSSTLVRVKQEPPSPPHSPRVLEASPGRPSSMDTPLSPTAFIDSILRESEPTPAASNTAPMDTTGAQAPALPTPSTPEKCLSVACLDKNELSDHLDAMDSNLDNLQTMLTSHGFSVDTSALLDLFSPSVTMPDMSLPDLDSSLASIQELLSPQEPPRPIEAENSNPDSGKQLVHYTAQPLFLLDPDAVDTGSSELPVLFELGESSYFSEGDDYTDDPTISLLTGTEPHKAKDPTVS
# [3] = growth suppression of PTEN-null colon cells, dose response, cell-based, HCT116 PTEN knockout (AID 1047); type: functional;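 further: HCT116 colon tumor cells with PTEN knocked out; cells exposed to compound for 60 hours before readout; potency for loss of cell viability measured by luminescence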
# [4] = growth suppression of beta-catenin-knockout colon cells, dose response, cell-based, HCT116, human colon tumor (AID 1045); type: functional;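 further: HCT116 colon tumor cells with beta catenin knocked out; cells exposed to compound for 60 hours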
# [5] = HepG2 cell cytotoxicity, dose response, cytotoxicity control for Shn3 inhibitor project, CellTiter-Glo, cherry-picked (AID 624134); type: functional, cell-based
# [6] = Shn3 3'UTR reporter inhibitors, dose response, cell-based, Clone20 osteoblasts, firefly luciferase, cherry-picked (AID 624132); type: functional;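 further: firefly luciferase luminescence from reporter carrying the Shn3 3'UTR in osteoblasts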
# [7] = control 3'UTR Renilla luciferase suppression, dose response, counter-screen for Shn3 inhibitor project, cell-based, Clone20-Shn3RL, cherry-picked (AID 624133); type: functional
# [8] = target: T2, Carboxy-terminal domain RNA polymerase II polypeptide A small phosphatase 1 (Homo sapiens, UniProt Q9GZU7); test: inhibitors of CTDSP1, concentration-response testing, biochemical assay, absorbance-based, actives from ultra-high-throughput screening (AID 540297); type: functional
# T2 sequence (Q9GZU7 whole entry): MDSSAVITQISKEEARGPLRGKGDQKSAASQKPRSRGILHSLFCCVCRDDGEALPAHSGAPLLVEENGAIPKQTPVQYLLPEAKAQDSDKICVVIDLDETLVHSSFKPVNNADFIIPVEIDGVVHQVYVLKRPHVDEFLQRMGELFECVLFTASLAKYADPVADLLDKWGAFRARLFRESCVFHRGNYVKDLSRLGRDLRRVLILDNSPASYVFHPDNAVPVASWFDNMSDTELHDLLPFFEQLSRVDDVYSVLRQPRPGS
# [9] = inhibitors of HIV Env-driven cell fusion, dose response, cherry-pick (AID 652057); type: functional, cell-based
# [10] = inhibitors of clade B AD8 Env fusion, dose response, cell-based, cherry-pick (AID 652062); type: functional;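 further: luciferase signal from cell-cell fusion driven by HIV-1 clade B AD8 Env; potency is for inhibitors of fusion seen as a drop in luminescence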
# [11] = off-target signal loss in HeLa-CEM21 co-culture – HeLa F-luc CTL cells, cherry-picked, counter-screen for HIV-1 Env fusion inhibitor project, dose response (AID 652040); type: functional, cell-based;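 further: potency for signal decrease marking cytotoxic or nonspecific inhibition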
# [12] = ZM109 Env clade C HIV-1 fusion inhibitors, dose response, HeLa effector, CEM target cells, luciferase, cherry-pick (AID 652058); type: functional, cell-based
# [13] = target: T3, Rac GTPase-activating protein 1 (Homo sapiens, UniProt Q9H0H5); test: MgcRacGAP GTPase-activating activity inhibitors, confirmation, biochemical, ADP Hunter fluorescence, primary and confirmatory (AID 624330); type: functional
# T3 sequence (Q9H0H5 whole entry): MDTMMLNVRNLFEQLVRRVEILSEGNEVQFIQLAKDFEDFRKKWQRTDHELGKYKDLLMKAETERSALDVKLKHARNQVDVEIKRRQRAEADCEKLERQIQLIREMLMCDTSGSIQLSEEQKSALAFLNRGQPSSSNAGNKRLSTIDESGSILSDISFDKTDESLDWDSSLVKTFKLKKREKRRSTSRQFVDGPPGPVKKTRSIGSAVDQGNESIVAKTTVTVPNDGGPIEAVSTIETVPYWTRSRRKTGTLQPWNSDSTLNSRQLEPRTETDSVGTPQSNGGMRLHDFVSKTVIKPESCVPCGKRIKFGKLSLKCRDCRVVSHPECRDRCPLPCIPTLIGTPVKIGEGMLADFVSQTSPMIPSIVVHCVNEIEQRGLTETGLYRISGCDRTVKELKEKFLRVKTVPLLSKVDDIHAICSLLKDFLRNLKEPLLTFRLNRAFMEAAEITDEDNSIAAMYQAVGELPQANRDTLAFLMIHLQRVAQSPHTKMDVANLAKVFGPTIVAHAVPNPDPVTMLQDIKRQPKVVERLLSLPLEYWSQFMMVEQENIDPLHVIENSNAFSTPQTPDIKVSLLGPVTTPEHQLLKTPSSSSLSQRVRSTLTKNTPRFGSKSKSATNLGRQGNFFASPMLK
# [14] = target: Cytochrome P450 2C9 (Homo sapiens, UniProt P11712)
# [15] = target: T4, Protein skinhead-1 (Caenorhabditis elegans, UniProt P34707); type: functional
# T4 sequence (P34707 whole entry): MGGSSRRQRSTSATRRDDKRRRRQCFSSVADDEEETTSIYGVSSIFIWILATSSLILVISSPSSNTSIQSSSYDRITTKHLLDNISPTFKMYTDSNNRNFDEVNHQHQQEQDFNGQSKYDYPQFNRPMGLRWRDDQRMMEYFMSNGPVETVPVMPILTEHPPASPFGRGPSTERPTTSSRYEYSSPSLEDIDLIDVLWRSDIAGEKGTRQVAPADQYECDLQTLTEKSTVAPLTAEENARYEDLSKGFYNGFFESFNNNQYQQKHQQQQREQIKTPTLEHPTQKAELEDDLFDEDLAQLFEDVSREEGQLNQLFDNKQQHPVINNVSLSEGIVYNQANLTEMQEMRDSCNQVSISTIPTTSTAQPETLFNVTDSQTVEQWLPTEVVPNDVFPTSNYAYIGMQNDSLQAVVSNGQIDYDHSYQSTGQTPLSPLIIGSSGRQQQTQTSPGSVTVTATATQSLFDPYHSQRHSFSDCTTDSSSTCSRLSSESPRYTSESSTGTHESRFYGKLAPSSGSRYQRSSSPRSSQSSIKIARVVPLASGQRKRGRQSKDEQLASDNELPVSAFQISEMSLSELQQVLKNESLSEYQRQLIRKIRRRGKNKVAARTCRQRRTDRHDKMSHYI
# [16] = target: T5, Streptokinase A (Streptococcus pyogenes serotype M1, UniProt P10520); test: S. pyogenes streptokinase expression inhibitors, potency, dose response, plasminogen activation absorbance, OD405 (AID 1914); type: functional, Streptococcus pyogenes M1 GAS;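 further: secreted streptokinase activity via plasminogen activation per viability signal from cell pellet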
# T5 sequence (P10520 whole entry): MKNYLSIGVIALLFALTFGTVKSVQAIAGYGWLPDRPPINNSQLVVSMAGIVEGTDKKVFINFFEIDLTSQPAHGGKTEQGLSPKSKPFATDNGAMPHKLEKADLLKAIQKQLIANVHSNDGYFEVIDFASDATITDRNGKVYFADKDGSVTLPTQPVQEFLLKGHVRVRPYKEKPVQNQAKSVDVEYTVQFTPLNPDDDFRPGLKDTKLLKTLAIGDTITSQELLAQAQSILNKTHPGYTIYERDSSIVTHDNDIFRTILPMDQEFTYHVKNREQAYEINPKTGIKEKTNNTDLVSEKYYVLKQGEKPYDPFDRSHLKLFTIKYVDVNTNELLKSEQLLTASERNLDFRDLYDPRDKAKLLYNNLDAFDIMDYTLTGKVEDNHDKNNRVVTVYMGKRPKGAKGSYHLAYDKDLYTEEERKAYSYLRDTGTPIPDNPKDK
# [17] = system: Streptococcus sp. 'group A'; test: growth inhibition of control SK(-) GAS strain, dose response, counter-screen for streptokinase expression inhibitor project, luminescence, kanamycin, BacTiterGlo, confirmation (AID 1900); type: functional, organism-based
# [18] = system: Streptococcus; test: Group A Streptococcus viability loss, dose response, counter-screen for streptokinase expression inhibitor project, luminescence, BacTiterGlo (AID 1915); type: functional, organism-based;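 further: potency for reduction of bacterial viability or growth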
# [19] = target: T6, Fatty acid synthase (Homo sapiens, UniProt P49327); test: FAS thioesterase domain inhibitors, dose response, biochemical, kinetic fluorescence intensity (AID 624326); type: functional;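 further: rate of fluorescence rise from hydrolysis of a fluorogenic O-methyl fluorescein ester substrate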
# [20] = target: T6, Fatty acid synthase; test: FAS thioesterase domain inhibitors, dose response, biochemical, endpoint fluorescence intensity, uHTS hits (AID 624327); type: functional;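 further: fluorescence from hydrolysis of an O-methyl fluorescein acyl ester substrate by the enzyme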
# Genome polyprotein, sequence (P29990 2492-3391 limits assumed): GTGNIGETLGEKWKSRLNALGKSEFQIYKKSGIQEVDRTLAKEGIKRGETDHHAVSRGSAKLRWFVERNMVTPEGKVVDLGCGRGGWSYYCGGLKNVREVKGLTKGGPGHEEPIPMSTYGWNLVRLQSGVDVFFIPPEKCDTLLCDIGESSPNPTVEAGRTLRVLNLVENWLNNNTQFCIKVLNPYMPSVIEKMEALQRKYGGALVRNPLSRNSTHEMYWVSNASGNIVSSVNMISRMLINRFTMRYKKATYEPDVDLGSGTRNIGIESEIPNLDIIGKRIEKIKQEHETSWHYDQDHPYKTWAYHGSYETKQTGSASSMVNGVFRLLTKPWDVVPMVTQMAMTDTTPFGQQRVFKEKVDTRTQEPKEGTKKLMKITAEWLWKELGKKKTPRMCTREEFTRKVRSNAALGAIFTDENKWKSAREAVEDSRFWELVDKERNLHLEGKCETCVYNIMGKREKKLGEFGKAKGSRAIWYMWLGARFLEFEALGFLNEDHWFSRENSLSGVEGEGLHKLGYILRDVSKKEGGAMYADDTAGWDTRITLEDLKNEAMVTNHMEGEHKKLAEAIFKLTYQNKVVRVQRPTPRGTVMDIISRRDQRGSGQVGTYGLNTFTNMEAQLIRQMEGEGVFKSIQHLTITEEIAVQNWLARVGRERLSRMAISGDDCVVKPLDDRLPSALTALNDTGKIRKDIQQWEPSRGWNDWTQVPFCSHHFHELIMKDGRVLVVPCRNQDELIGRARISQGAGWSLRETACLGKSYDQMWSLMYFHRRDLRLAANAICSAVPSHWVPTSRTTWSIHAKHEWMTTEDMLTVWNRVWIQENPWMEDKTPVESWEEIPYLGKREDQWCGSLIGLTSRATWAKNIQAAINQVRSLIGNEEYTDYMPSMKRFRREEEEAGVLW
# T6 sequence (P49327 whole entry, the tested form may be a part): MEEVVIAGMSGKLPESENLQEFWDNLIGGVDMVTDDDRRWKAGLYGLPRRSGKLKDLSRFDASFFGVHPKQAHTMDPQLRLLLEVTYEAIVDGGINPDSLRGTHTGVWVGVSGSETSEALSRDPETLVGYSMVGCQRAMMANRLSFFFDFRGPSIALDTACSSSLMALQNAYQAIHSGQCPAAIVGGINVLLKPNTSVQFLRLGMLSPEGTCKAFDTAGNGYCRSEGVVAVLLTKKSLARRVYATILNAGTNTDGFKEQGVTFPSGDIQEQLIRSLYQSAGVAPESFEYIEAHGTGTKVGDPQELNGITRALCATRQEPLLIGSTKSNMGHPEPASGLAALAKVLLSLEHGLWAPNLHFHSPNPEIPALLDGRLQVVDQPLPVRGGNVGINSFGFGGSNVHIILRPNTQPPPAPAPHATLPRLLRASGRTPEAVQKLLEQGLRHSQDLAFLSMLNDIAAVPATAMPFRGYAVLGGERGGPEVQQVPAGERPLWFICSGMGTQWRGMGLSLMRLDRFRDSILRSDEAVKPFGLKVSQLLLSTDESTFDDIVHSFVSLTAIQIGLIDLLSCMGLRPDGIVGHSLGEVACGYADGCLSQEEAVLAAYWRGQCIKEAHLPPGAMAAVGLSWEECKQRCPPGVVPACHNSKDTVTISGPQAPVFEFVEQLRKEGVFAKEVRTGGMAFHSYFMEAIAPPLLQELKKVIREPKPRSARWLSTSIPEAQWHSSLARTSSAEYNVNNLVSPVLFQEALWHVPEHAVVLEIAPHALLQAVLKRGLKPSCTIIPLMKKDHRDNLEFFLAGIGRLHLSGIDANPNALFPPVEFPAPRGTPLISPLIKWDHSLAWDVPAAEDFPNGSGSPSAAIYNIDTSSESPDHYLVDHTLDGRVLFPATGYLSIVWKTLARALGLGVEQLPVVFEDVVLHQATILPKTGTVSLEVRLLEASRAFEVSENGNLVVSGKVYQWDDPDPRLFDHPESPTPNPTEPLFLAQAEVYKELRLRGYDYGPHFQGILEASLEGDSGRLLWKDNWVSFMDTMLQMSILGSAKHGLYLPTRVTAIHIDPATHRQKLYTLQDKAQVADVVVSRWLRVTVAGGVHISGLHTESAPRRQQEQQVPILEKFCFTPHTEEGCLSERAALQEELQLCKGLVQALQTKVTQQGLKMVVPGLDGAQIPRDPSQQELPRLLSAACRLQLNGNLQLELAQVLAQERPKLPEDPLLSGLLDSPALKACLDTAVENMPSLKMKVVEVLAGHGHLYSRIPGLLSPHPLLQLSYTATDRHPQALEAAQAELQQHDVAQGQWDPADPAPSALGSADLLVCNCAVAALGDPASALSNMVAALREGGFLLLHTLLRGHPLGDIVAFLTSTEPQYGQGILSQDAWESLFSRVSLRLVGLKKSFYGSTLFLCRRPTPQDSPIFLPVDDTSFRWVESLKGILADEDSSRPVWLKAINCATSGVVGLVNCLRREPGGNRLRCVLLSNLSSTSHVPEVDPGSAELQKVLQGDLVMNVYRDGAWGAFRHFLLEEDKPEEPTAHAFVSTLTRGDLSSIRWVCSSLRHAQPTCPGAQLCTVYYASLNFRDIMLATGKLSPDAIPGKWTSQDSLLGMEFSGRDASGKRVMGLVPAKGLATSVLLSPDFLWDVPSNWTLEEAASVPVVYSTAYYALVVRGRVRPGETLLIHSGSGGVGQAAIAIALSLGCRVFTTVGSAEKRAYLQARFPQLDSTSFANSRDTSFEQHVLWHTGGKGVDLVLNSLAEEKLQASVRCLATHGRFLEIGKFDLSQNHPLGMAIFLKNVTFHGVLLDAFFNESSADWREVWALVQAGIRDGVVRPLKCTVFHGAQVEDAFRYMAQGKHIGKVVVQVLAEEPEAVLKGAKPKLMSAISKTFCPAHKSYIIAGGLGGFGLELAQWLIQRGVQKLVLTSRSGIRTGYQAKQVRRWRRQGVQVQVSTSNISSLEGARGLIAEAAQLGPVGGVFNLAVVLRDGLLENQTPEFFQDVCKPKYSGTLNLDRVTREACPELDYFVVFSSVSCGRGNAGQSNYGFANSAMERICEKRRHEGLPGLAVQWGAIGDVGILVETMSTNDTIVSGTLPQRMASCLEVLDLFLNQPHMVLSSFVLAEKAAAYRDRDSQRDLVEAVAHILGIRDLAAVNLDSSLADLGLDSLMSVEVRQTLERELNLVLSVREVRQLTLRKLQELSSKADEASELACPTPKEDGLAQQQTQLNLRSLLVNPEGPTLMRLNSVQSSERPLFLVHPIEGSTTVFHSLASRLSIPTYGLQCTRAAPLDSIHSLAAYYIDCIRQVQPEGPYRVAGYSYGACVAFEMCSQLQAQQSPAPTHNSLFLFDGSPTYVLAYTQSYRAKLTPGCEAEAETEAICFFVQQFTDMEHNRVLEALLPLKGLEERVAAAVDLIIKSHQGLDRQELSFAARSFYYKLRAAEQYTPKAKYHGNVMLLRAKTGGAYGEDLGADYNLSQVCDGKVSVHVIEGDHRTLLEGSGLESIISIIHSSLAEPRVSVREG
# Cytochrome P450 2C9, sequence (P11712 whole entry): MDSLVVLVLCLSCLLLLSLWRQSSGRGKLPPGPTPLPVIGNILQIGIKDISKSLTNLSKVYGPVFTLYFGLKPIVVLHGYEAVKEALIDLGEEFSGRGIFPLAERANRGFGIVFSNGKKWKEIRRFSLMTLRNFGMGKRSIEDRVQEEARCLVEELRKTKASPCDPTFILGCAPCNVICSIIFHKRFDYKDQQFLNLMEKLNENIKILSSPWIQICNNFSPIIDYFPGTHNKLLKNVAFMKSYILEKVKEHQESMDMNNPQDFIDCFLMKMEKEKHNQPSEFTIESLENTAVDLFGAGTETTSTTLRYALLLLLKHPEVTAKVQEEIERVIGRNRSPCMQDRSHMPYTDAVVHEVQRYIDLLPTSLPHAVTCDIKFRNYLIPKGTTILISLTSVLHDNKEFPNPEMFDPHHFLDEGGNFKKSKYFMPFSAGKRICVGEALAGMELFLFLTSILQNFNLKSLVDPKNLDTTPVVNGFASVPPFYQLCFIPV
smiles,measurement,setting,value
Cc1c(Br)c(O)c(Br)c2sc(=O)oc12,IC50,[1],62.3 µM (active)
CCOc1ccc2nc(NC(=O)c3cc([N+](=O)[O-])ccc3N3CCOCC3)sc2c1,EC50,[2],15 µM (active)
same,EC50,[3],23.3 µM (active)
same,EC50,[4],48.5 µM (active)
COc1ccc(-n2c(C)cc(C(=O)CSc3nnc(-c4cccs4)o3)c2C)cc1,AC50,[5],48.6 µM (active)
same,AC50,[6],5.03 µM (active)
same,AC50,[7],5.62 µM (active)
COc1cc(/C=C2\C(=N)N3N=C(S(C)(=O)=O)SC3=NC2=O)ccc1OC(=O)c1ccco1,IC50,[8],4.55 µM (active)
CCOC(=O)[C@@H]1[C@H]2COc3ccc(Br)cc3[C@@H]2N2C(=O)N(c3cccc(F)c3)C(=O)[C@@]12C,AC50,[9],2.7 µM (active)
same,AC50,[10],4.21 µM (active)
same,AC50,[11],2.45 µM (active)
same,AC50,[12],4.41 µM (active)
COc1ccc(/C=C(\C#N)c2nc3cc(C)ccc3[nH]2)cc1Oc1ccc(C(F)(F)F)cc1[N+](=O)[O-],EC50,[3],4.59 µM (active)
same,EC50,[4],8.78 µM (active)
O=C1CCCCCN1Sc1ccccc1,EC50,[3],20.2 µM (active)
same,EC50,[4],16.9 µM (active)
same,IC50,[13],87.6 µM (active)
COC(=O)c1ccc(CCc2cc(O)ccc2O)cc1,AC50,[14],7.94 µM (inconclusive)
same,AC50,[5],> 70 µM (inactive)
same,AC50,[6],3.14 µM (active)
same,AC50,[7],14.5 µM (active)
CC1(C)CC(=O)C(=Cc2cn(CCC#N)nc2-c2ccc(Cl)cc2)C(=O)C1,IC50,[1],31.8 µM (active)
CC(OC(=O)c1ccc(NC(=O)CC#N)cc1)C(=O)NCCC1=CCCCC1 (stereo not drawn),AC50,[12],0.439 µM (active)
COc1ccc(Cl)cc1NC(=O)CN(C)C(=O)CCCc1c[nH]c2ccccc12,AC50,[9],3.29 µM (active)
same,AC50,[10],4.6 µM (active)
same,AC50,[11],4.68 µM (active)
same,AC50,[12],5.13 µM (active)
O=C(O)c1cc(S(=O)(=O)N2CCN(S(=O)(=O)c3ccc4ccccc4c3)CC2)ccc1Br,IC50,[8],6.22 µM (active)
COc1ccc(-c2csc3ncnc(Oc4ccc5c(C)cc(=O)oc5c4)c23)cc1,EC50,[3],24.8 µM (active)
same,EC50,[4],47.3 µM (active)
CC[C@@]1(C(=O)OC)N[C@H](CN(C)C(=O)Nc2ccc(OC)cc2)[C@@H]2C(=O)N(Cc3ccccc3)C(=O)[C@@H]21,AC50,[9],1.1 µM (active)
same,AC50,[10],1.32 µM (active)
same,AC50,[11],1.46 µM (active)
same,AC50,[12],1.71 µM (active)
COc1ccccc1N(C)S(=O)(=O)c1ccc(Cl)c(C(=O)NCC2(N(C)C)CCCCC2)c1,AC50,[9],2.92 µM (active)
same,AC50,[10],3.32 µM (active)
same,AC50,[11],5.54 µM (active)
same,AC50,[12],3.96 µM (active)
C=C1C(=O)OC2C=C(CO)C3OC3C3OC3(C)CC(OC(=O)/C(=C/C)COC(C)=O)C12 (stereo not drawn),AC50,[5],32.2 µM (active)
same,AC50,[6],5.89 µM (active)
same,AC50,[7],9.84 µM (active)
Cc1cc(=O)c2c(o1)C(=O)c1occc1C2=O,IC50,[1],62.4 µM (active)
COC(=O)[C@]1(C)N[C@H](CN(C)C(=O)Nc2ccc(Cl)cc2)[C@@H]2C(=O)N(Cc3ccccc3)C(=O)[C@@H]21,AC50,[9],0.659 µM (active)
same,AC50,[10],1.3 µM (active)
same,AC50,[11],1.5 µM (active)
same,AC50,[12],1.12 µM (active)
CCC(C)(C)c1nnc(NC(=O)CCC2CCCCC2)s1,IC50,[15],> 100 µM (inactive)
O=C(Oc1ccc(/N=C2\C(=O)c3ccccc3C(O)=C2Cl)cc1)c1ccc([N+](=O)[O-])cc1,EC50,[16],> 150 µM (not active)
same,EC50,[17],20.7 µM (active)
same,EC50,[18],44.1 µM (active)
same,EC50,[3],9.05 µM (active)
same,EC50,[4],4.97 µM (active)
COc1cc([N+](=O)[O-])cc(/C=N/NC(=O)c2cccnc2)c1O,IC50,[19],9.94 µM (active)
same,EC50,[17],2.99 µM (active)
same,IC50,[20],9.23 µM (active)
same,EC50,[18],1.76 µM (active)
O=C(Cn1nnc(-c2ccccc2Cl)n1)N/N=C/c1ccc(-c2cccc(Cl)c2)o1,EC50,[3],20.1 µM (active)
same,EC50,[4],39.1 µM (active)
